Test results: PubChem BioAssay AID2060905 (Molecular Pharmacology Branch, DTP, NCI, 2025)

System: 282377-053-R-J1-PDC complex spheroid viability
Assay: Anticancer human tumor 282377-053-R-J1-PDC patient-derived colon adenocarcinoma cell line growth inhibition [RAS]
Details: for IC50: curve of first compound; for viability, T/C: stronger effect = lower value
Outline: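 Multi-cell-type spheroids: tumor cells plus HUVEC endothelial cells and mesenchymal stem cells. RAS-pathway inhibitors were combined with targeted agents, each dosed in half-log steps down from clinical Cmax, or from 10 microM when Cmax was unknown.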
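Further: spheroids exposed to agents for seven days before readout.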
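Wherever viability, T/C is given: luminescence viability as percent of DMSO vehicle control wells.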

With `CCc1c2c(nc3ccc(O)cc13)-c1cc3c(c(=O)n1C2)COC(=O)[C@]3(O)CC` + CCn1c(-c2cc(N3CCN(C)CC3)cnc2C(C)OC)c2c3cc(ccc31)-c1csc(n1)CC(NC(=O)C1CC1C)C(=O)N1CCCC(N1)C(=O)OCC(C)(C)C2 the IC50 (second compound 0.000949 µM) was > 0.3 µM, the IC50 (second compound 0.003 µM) was > 0.3 µM and the IC50 (second compound 0.00949 µM) was > 0.3 µM. For the same compound, the IC50 (second compound 0.03 µM) was > 0.3 µM, the IC50 (second compound 0.0949 µM) was > 0.3 µM and the IC50 (second compound 0.3 µM) was > 0.3 µM. For the same compound, the viability, T/C (second compound 0.000949 µM, first compound 0.000949 µM) was 130%, the viability, T/C (second compound 0.000949 µM, first compound 0.003 µM) was 112% and the viability, T/C (second compound 0.000949 µM, first compound 0.00949 µM) was 153%. For the same compound, the viability, T/C (second compound 0.000949 µM, first compound 0.03 µM) was 124%, the viability, T/C (second compound 0.000949 µM, first compound 0.0949 µM) was 86.5% and the viability, T/C (second compound 0.000949 µM, first compound 0.3 µM) was 81%. For the same compound, the viability, T/C (second compound 0.003 µM, first compound 0.000949 µM) was 109%, the viability, T/C (second compound 0.003 µM, first compound 0.003 µM) was 114% and the viability, T/C (second compound 0.003 µM, first compound 0.00949 µM) was 151%. The viability, T/C (second compound 0.003 µM, first compound 0.03 µM) was 107%, the viability, T/C (second compound 0.003 µM, first compound 0.0949 µM) was 119% and the viability, T/C (second compound 0.003 µM, first compound 0.3 µM) was 66.2%. It also gave a viability, T/C (second compound 0.00949 µM, first compound 0.000949 µM) of 107%, a viability, T/C (second compound 0.00949 µM, first compound 0.003 µM) of 112% and a viability, T/C (second compound 0.00949 µM, first compound 0.00949 µM) of 136%. For the same compound, the viability, T/C (second compound 0.00949 µM, first compound 0.03 µM) was 105%, the viability, T/C (second compound 0.00949 µM, first compound 0.0949 µM) was 112% and the viability, T/C (second compound 0.00949 µM, first compound 0.3 µM) was 77.2%. The viability, T/C (second compound 0.03 µM, first compound 0.000949 µM) was 116%, the viability, T/C (second compound 0.03 µM, first compound 0.003 µM) was 102% and the viability, T/C (second compound 0.03 µM, first compound 0.00949 µM) was 139%. It also gave a viability, T/C (second compound 0.03 µM, first compound 0.03 µM) of 122%, a viability, T/C (second compound 0.03 µM, first compound 0.0949 µM) of 118% and a viability, T/C (second compound 0.03 µM, first compound 0.3 µM) of 65.4%. It also gave a viability, T/C (second compound 0.0949 µM, first compound 0.000949 µM) of 115%, a viability, T/C (second compound 0.0949 µM, first compound 0.003 µM) of 122% and a viability, T/C (second compound 0.0949 µM, first compound 0.00949 µM) of 162%. The viability, T/C (second compound 0.0949 µM, first compound 0.03 µM) was 131%, the viability, T/C (second compound 0.0949 µM, first compound 0.0949 µM) was 116% and the viability, T/C (second compound 0.0949 µM, first compound 0.3 µM) was 69.4%. For the same compound, the viability, T/C (second compound 0.3 µM, first compound 0.000949 µM) was 131%, the viability, T/C (second compound 0.3 µM, first compound 0.003 µM) was 131% and the viability, T/C (second compound 0.3 µM, first compound 0.00949 µM) was 161%. It also gave a viability, T/C (second compound 0.3 µM, first compound 0.03 µM) of 104%, a viability, T/C (second compound 0.3 µM, first compound 0.0949 µM) of 109% and a viability, T/C (second compound 0.3 µM, first compound 0.3 µM) of 77.9%.
`C=CC(=O)Nc1cc(Nc2nccc(-c3cn(C)c4ccccc34)n2)c(OC)cc1N(C)CCN(C)C` + CCn1c(-c2cccnc2C(C)OC)c2c3cc(ccc31)N1CCOC(CC(NC(=O)C(C(C)C)N(C)C(=O)C3(F)CCN(C(=O)C#CC(C)(C)N(C)C)CC3)C(=O)N3CCCC(N3)C(=O)OCC(C)(C)C2)C1 was tested, and the IC50 (second compound 0.000949 µM) was > 1 µM, the IC50 (second compound 0.003 µM) was > 1 µM and the IC50 (second compound 0.00949 µM) was > 1 µM. The IC50 (second compound 0.03 µM) was > 1 µM, the IC50 (second compound 0.0949 µM) was > 1 µM and the IC50 (second compound 0.3 µM) was > 1 µM. The viability, T/C (second compound 0.000949 µM, first compound 0.00316 µM) was 99%, the viability, T/C (second compound 0.000949 µM, first compound 0.01 µM) was 126% and the viability, T/C (second compound 0.000949 µM, first compound 0.0316 µM) was 127%. It also gave a viability, T/C (second compound 0.000949 µM, first compound 0.1 µM) of 92%, a viability, T/C (second compound 0.000949 µM, first compound 0.316 µM) of 86% and a viability, T/C (second compound 0.000949 µM, first compound 1 µM) of 123%. The viability, T/C (second compound 0.003 µM, first compound 0.00316 µM) was 109%, the viability, T/C (second compound 0.003 µM, first compound 0.01 µM) was 177% and the viability, T/C (second compound 0.003 µM, first compound 0.0316 µM) was 108%. For the same compound, the viability, T/C (second compound 0.003 µM, first compound 0.1 µM) was 81%, the viability, T/C (second compound 0.003 µM, first compound 0.316 µM) was 92.6% and the viability, T/C (second compound 0.003 µM, first compound 1 µM) was 88%. It also gave a viability, T/C (second compound 0.00949 µM, first compound 0.00316 µM) of 88%, a viability, T/C (second compound 0.00949 µM, first compound 0.01 µM) of 188% and a viability, T/C (second compound 0.00949 µM, first compound 0.0316 µM) of 98%. The viability, T/C (second compound 0.00949 µM, first compound 0.1 µM) was 84.8%, the viability, T/C (second compound 0.00949 µM, first compound 0.316 µM) was 91.5% and the viability, T/C (second compound 0.00949 µM, first compound 1 µM) was 119%. It also gave a viability, T/C (second compound 0.03 µM, first compound 0.00316 µM) of 102%, a viability, T/C (second compound 0.03 µM, first compound 0.01 µM) of 140% and a viability, T/C (second compound 0.03 µM, first compound 0.0316 µM) of 113%. It also gave a viability, T/C (second compound 0.03 µM, first compound 0.1 µM) of 114%, a viability, T/C (second compound 0.03 µM, first compound 0.316 µM) of 86.9% and a viability, T/C (second compound 0.03 µM, first compound 1 µM) of 97.4%. The viability, T/C (second compound 0.0949 µM, first compound 0.00316 µM) was 95.8%, the viability, T/C (second compound 0.0949 µM, first compound 0.01 µM) was 153% and the viability, T/C (second compound 0.0949 µM, first compound 0.0316 µM) was 93.9%. The viability, T/C (second compound 0.0949 µM, first compound 0.1 µM) was 98.5%, the viability, T/C (second compound 0.0949 µM, first compound 0.316 µM) was 87.1% and the viability, T/C (second compound 0.0949 µM, first compound 1 µM) was 124%. The viability, T/C (second compound 0.3 µM, first compound 0.00316 µM) was 85.7%, the viability, T/C (second compound 0.3 µM, first compound 0.01 µM) was 134% and the viability, T/C (second compound 0.3 µM, first compound 0.0316 µM) was 99.5%. For the same compound, the viability, T/C (second compound 0.3 µM, first compound 0.1 µM) was 102%, the viability, T/C (second compound 0.3 µM, first compound 0.316 µM) was 97.2% and the viability, T/C (second compound 0.3 µM, first compound 1 µM) was 121%.
